Data taken from patent US20050215490A1, “Polyene polyketides and methods of treating bacterial infections” (Ecopia BioSciences, Inc., priority 2003, published 2005).
Converted amounts (≈) assume the structure as drawn. Where two headings read alike, the source gives them in different places.

What was measured:
[1] = tested on: Bacillus subtilis (ATCC™ 23857); assay: MIC, broth microdilution (NCCLS M7-A5); format: cell-based; conditions: ATCC23857, B. subtilis ATCC 23857, Mueller-Hinton, 35° C., 18 hours, read-out: MIC
Method: (§1) Antibacterial activity of Compounds 1 and 2 (Table 4) was measured by determining the minimal inhibitory concentration (MIC) necessary to obtain a complete inhibition of bacteria growth in eight indicator strains, namely Staphylococcus aureus (ATCC™ 6538P), Staphylococcus aureus MRS3 (ATCC™ 700699), Staphylococcus epidermidis (ATCC™ 12228), Bacillus subtilis (ATCC™ 23857), Bacillus megaterium (ATCC™ 14581), Enterococcus faecalis VRE-1 (ATCC™ 29212), Enterococcus faecalis VRE-2 (ATCC™ 51299) and Micrococcus luteus (ATCC™ 9341). Indicator strains preparation and MIC determination were performed according to the National Committee for Clinical Laboratory Standards (NCCLS) guideline M7-A5 Methods for Dilution Antimicrobial Susceptibility Tests for Bacteria That Grow Aerobically; Approved Standard-Fifth Edition. (NCCLS document M7-A5, ISBN 1-56238-394-9; NCCLS, 940 West Valley Road, Suite 1400, Wayne, Pa. 19087-1898 USA), the content of which is incorporated herein by reference.
(§2) Compounds 1 and 2 were prepared as 100× stock solution in DMSO, with concentrations ranging from 3.2 mg/ml to 0.00625 mg/ml (a two-fold dilution series over […]). An aliquot of each 100× stock solution was diluted 50-fold in test medium described below to give a set of ten (10) 2× solutions ranging from 64 to 0.125 μg/mL. 50 μl of each of the ten 2× solutions was aliquoted into the corresponding well of a 12-well row, with the final well reserved for medium alone control. Each test was made in duplicate.
(§3) Vancomycin (Sigma™) used as positive control compounds, was prepared as 2× stock solutions in sterile, double-distilled water (ddH2O) ranging from 64 μg/ml to […] (a two-fold dilution series over 10 points). An aliquot of 50 μl corresponding to each concentration (at 2×) was then transferred to 96-well microplates to obtain a series of eleven two-fold dilutions.
(§4) An isolated colony of each of the eight indicator strains was used to inoculate tubes containing 3 ml of test medium. Mueller-Hinton test medium was used for Staphylococcus aureus (ATCC™ 6538P), Staphylococcus aureus MRS3 (ATCC™ 700699), Staphylococcus epidermidis (ATCC™ 12228), Bacillus subtilis (ATCC™ 23857), Bacillus megaterium (ATCC™ 14581) and Micrococcus luteus (ATCC™ 9341) indicator strains, and BHI (Brain-Heart Infusion broth) test medium was used for Enterococcus faecalis VRE-1 (ATCC™ 29212) and Enterococcus faecalis VRE-2 (ATCC™ 51299) indicator strains. Cells were grown overnight at 28° C. with shaking. Inoculum density for each indicator strain was adjusted to OD600=0.1 in 5 ml 0.85% saline, then further diluted 1/100 in appropriate medium. 50 μl of the final dilution (in test medium) of each indicator strain was added to each well of a 12-well row. This brings the final dilution of the test article or control compound in solution to 1×. The final inoculum is approximately 5×10^5 CFU/ml.
(§5) The indicator strains were incubated with 11 concentrations of each of Compounds 1 and 2, Vancomycin (Sigma™) control compound and one media alone control. For MIC determination, assay plates were incubated at 35° C. for 18 hours.

[2] = tested on: Staphylococcus aureus MRS3 (ATCC™ 700699); assay: MIC, broth microdilution (NCCLS M7-A5); format: cell-based; conditions: read-out: MIC
Method: as §1, §2, §3, §4, §5

[3] = tested on: Micrococcus luteus (ATCC™ 9341); assay: MIC, broth microdilution (NCCLS M7-A5); format: cell-based; conditions: ATCC9341, M. luteus ATCC 9341, Mueller-Hinton, 35° C., 18 hours, read-out: MIC
Method: as §1, §2, §3, §4, §5

[4] = tested on: Enterococcus faecalis VRE-1 (ATCC™ 29212); assay: MIC, broth microdilution (NCCLS M7-A5); format: cell-based; conditions: E. faecalis ATCC 29212, BHI, 35° C., 18 hours, read-out: MIC
Method: as §1, §2, §3, §4, §5

[5] = tested on: Staphylococcus epidermidis (ATCC™ 12228); assay: MIC, broth microdilution (NCCLS M7-A5); format: cell-based; conditions: read-out: MIC
Method: as §1, §2, §3, §4, §5

[6] = tested on: S. epidermidis (ATCC™ 12228); assay: Minimal bactericidal concentration (NCCLS M26-A); format: cell-based, Staphylococcus epidermidis; conditions: for MBC: Staphylococcus epidermidis, more than 99.9% growth inhibition
Method: (§6) Minimal bactericidal concentration (MBC) was also determined for Compounds 1 and 2. […] MBC were measured against three Staphylococcus strains, namely sp. aureus MSSA (ATCC™ 6538P), sp. aureus MRSA-hVISA (ATCC™ 700699) and sp. epidermidis (ATCC™ 12228). The results, shown in Table 6 below, were consistent with bactericidal activity (MBC/MIC ratio were of 1 to 2).
(§7) MBC determination was performed according to the NCCLS guideline M26-A: Methods for Determining Bactericidal Activity of Antimicrobial Agents (NCCLS document […], ISBN 1-56238-394-9; NCCLS, 940 West Valley Road, Suite 1400, Wayne, Pa. 19087-1898 USA), the content of which is incorporated herein by reference.
(§8) Microdilutions broth assays were performed using the same procedure as for MIC determination, Example 6. 24 hours post-incubation, cells were collected in wells corresponding to the MIC, 2×MIC and 4×MIC. Collected cells were plated on agar media. MBC were determined as the drug concentration at which more than 99.9% growth inhibition was observed. As a reference for 100% growth, cells grown in media only were also plated.

[7] = tested on: Staphylococcus aureus NRRL B-313 (ATCC™ 6538P); assay: MIC at different pH; format: cell-based; conditions: S. aureus ATCC 6538P
Method: Antibacterial activitiy of Compounds.3, 4, 5, 6 and 7 are accomplished using the same method in a panel of bacterial strains and Vancomycin as positive control.
Antibacterial efficacy of Compounds 1, 2, 3, 4, 5 and 6 on bacterial strain Staphylococcus aureus NRRL B-313 (ATCC™ 6538P) was determined at different pH concentrations.

[8] = tested on: S. aureus MSSA (ATCC™ 6538P); assay: Minimal bactericidal concentration (NCCLS M26-A); format: cell-based, Staphylococcus aureus; conditions: for MBC: Staphylococcus aureus, more than 99.9% growth inhibition
Method: as §6, §7, §8

[9] = tested on: S. aureus MRSA-hVISA (ATCC™ 700699); assay: Minimal bactericidal concentration (NCCLS M26-A); format: cell-based, Staphylococcus aureus; conditions: for MBC: Staphylococcus aureus, more than 99.9% growth inhibition
Method: as §6, §7, §8

[10] = ATCC700699, S. aureus ATCC 700699, Mueller-Hinton, 35° C., 18 hours
[11] = ATCC12228, S. epidermidis ATCC 12228, Mueller-Hinton, 35° C., 18 hours

Row | SMILES | MIC [1] [µg/mL] | MIC [2, 10] [µg/mL] | MIC ([2]; Table 6, S. aureus MRSA-hVISA) [µg/mL] | MIC [3] [µg/mL] | MIC [4] [µg/mL] | MIC [5, 11] [µg/mL] | MIC ([5]; Table 6, S. epidermidis) [µg/mL] | MBC/MIC [6] | MBC [6] [µg/mL] | MIC ([7]; pH 5.0, read-out: MIC) [µg/mL] | MIC ([7]; pH 6.0, read-out: MIC) [µg/mL] | MIC ([7]; pH 7.0, read-out: MIC) [µg/mL] | MBC/MIC [8] | MBC [8] [µg/mL] | MBC/MIC [9] | MBC [9] [µg/mL]
1 | CC(=CC=CC=CC=CC=CC(C)C(OC1OC(C(=O)O)C(O)C(O)C1O)C(C)=CC(C)CCCC=CC(C)CC=CCCCN(C)C(=N)N)C(=O)NC1=C(O)CCC1=O (centres unmarked) [Compound 1, 3,4,5-trihydroxy-6-[1-[11-(2-hydroxy-5-oxocyclopent-1-enylcarbamoyl)-1-methyldodeca-2,4,6,8,10-pentaenyl]-2,4,10-trimethyl-16-(N-methyl-guanidino)-hexadeca-2,8,12-trienyloxy]-tetrahydropyran-2-carboxylic acid] | 1 (≈ 1.19 µM) | 4 (≈ 4.78 µM) | 4 (≈ 4.78 µM) | 4 (≈ 4.78 µM) | 8 to 16 (≈ 9.56 to 19.1 µM) | 4 (≈ 4.78 µM) | 4 (≈ 4.78 µM) | 1 | 4 (≈ 4.78 µM) | 0.125 (≈ 0.149 µM) | 0.25 (≈ 0.299 µM) | 1 (≈ 1.19 µM) | 2 | 4 (≈ 4.78 µM) | 1 | 4 (≈ 4.78 µM)
2 | C\C(=C/C=C/C=C/C=C/C=C/C(C)C(OC1OC(C(=O)O)C(O)C(O)C1O)/C(C)=C/C(C)CCC/C=C/C(C)C/C=C/CCCNC(=N)N)C(=O)NC1=C(O)CCC1=O (centres unmarked) [Compound 2, 6-{16-guanidino-1-[11-(2-hydroxy-5-oxocyclopent-1-enylcarbamoyl)-1-methyldodeca-2,4,6,8,10-pentaenyl]-2,4,10-trimethylhexadeca-2,8,12-trienyloxy}-3,4,5-trihydroxy-tetrahydro-pyran-2-carboxylic acid] | 2 (≈ 2.43 µM) | 1 (≈ 1.22 µM) | 1 (≈ 1.22 µM) | 1 to 2 (≈ 1.22 to 2.43 µM) | 16 (≈ 19.4 µM) | 1 (≈ 1.22 µM) | 1 (≈ 1.22 µM) | 1 | 1 (≈ 1.22 µM) | 0.0625 (≈ 0.0759 µM) | 0.125 (≈ 0.152 µM) | 1 (≈ 1.22 µM) | 2 | 2 (≈ 2.43 µM) | 2 | 2 (≈ 2.43 µM)
